For assay [1], the target named is T1, A disintegrin and metalloproteinase with thrombospondin motifs 5 (Bos taurus) (UniProt Q9TT92).
T1 sequence (whole entry): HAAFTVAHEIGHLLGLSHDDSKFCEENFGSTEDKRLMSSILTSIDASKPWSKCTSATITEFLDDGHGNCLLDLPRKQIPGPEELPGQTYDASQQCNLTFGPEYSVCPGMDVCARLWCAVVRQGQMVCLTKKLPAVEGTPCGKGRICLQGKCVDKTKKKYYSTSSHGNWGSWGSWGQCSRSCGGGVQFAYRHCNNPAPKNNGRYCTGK
Description: Ex vivo inhibition of ADAMTS-5-mediated aggrecan degradation in IL-1-stimulated bovine cartilage explant at 30 uM.

Assay [2] concerns the target T2, A disintegrin and metalloproteinase with thrombospondin motifs 4 (Homo sapiens, UniProt O75173).
T2 sequence (O75173 whole entry): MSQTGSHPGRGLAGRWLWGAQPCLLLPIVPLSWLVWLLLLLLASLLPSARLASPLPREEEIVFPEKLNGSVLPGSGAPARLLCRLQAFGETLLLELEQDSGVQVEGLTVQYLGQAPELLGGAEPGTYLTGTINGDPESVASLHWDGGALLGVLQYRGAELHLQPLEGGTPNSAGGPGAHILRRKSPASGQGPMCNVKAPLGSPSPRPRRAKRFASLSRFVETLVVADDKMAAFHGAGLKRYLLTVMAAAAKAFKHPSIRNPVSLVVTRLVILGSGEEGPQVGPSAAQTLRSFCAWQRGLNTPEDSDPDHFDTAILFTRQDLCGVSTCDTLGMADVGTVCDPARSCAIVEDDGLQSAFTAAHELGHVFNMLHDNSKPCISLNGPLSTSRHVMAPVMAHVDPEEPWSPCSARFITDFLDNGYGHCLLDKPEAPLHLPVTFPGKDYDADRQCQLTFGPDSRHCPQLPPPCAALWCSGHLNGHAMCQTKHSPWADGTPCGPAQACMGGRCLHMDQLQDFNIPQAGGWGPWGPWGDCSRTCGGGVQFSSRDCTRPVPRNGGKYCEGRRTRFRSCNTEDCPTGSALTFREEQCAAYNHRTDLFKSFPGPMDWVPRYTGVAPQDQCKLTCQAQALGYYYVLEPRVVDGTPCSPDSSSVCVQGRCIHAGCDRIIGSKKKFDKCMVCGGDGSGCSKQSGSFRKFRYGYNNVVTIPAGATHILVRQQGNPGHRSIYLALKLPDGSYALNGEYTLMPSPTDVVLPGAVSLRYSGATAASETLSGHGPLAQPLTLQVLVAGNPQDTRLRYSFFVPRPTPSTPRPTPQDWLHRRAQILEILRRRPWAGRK
Briefly: Inhibition of ADAMTS-4 (unknown origin).

The target in assay [3] is T3, A disintegrin and metalloproteinase with thrombospondin motifs 5 (Homo sapiens, UniProt Q9UNA0).
T3 sequence (Q9UNA0 whole entry): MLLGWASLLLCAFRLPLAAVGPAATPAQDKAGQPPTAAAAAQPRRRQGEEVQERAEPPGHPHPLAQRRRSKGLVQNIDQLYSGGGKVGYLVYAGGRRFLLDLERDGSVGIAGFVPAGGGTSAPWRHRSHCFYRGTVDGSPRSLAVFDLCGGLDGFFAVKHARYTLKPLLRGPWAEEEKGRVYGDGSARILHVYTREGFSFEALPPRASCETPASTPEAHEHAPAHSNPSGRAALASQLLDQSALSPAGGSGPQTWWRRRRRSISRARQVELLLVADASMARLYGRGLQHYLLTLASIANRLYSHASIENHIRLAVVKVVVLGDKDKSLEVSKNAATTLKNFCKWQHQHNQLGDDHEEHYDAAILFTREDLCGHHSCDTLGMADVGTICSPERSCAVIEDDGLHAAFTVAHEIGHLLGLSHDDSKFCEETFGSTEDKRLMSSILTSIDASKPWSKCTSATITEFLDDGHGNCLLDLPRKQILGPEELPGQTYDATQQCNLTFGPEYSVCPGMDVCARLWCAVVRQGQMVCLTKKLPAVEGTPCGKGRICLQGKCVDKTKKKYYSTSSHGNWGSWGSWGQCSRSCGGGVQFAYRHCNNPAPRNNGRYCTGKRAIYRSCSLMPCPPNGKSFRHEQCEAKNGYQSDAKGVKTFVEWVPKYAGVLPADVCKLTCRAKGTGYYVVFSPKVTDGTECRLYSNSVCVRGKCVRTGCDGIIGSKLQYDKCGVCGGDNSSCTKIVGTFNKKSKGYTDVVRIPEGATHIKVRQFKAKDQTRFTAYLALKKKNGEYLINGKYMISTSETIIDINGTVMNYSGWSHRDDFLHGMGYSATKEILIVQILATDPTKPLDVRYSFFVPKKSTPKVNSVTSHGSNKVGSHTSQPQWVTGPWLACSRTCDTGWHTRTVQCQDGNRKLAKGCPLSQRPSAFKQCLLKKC
Description: Inhibition of ADAMTS-5 (unknown origin).

Assay [4] concerns the target T4, A disintegrin and metalloproteinase with thrombospondin motifs 4 (Bos taurus) (UniProt Q9TT93).
T4 sequence (whole entry): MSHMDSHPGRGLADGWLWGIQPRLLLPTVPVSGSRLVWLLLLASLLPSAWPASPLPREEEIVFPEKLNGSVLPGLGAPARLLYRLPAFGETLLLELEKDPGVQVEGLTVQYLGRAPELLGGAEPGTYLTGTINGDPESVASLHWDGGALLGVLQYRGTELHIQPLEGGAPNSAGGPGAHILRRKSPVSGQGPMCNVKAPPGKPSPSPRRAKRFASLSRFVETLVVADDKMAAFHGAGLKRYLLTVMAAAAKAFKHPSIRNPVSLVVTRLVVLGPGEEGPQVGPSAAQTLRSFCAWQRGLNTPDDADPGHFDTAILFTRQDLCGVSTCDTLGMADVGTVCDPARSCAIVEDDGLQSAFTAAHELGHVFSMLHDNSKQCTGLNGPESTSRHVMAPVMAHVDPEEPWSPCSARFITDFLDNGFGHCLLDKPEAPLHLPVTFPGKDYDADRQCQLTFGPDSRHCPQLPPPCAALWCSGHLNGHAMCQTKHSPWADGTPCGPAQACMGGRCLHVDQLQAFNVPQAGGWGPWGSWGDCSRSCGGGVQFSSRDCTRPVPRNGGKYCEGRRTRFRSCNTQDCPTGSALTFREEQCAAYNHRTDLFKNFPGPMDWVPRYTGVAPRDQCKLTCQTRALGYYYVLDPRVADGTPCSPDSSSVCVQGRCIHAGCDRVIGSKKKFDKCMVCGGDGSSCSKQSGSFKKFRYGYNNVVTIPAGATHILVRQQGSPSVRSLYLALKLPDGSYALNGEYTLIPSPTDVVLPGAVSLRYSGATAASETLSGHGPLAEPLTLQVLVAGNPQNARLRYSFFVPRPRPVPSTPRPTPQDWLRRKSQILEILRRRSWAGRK
As to conditions: 30 uM.
Description: Ex vivo inhibition of ADAMTS-4-mediated aggrecan degradation in IL-1-stimulated bovine cartilage explant at 30 uM

pIC50: −log10 of the molar value.

Regarding `O=C(NO)C1(S(=O)(=O)c2ccc(Oc3ccc(Cl)cc3)cc2)CCN(Cc2ccccc2)CC1`, the inhibition in assay [1] and in assay [4] was 91% in each case. The pIC50 (commonly the IC50 on a negative log10 scale, so that one unit is a factor of ten) in assay [2] is 6.00; in assay [3] it was 6.38.

(Values after ChEMBL document CHEMBL2346648, “A series of thiazole derivatives bearing thiazolidin-4-one as non-competitive ADAMTS-5 (aggrecanase-2) inhibitors” (Bioorg Med Chem Lett, 2013).)
